What was measured:
MOLM-14 and MV4-11 cells = assay: Differentiation of FLT3-ITD AML cell lines (surface markers, morphology); assay type: cell-based, human
Procedure: (a-b) MOLM-14 and MV4-11 cells were treated for different times with IRC-083864 (100 nM and 200 nM) and the expression of the cell surface markers CD11b, CD14 and CD15 were followed by flow cytometry analysis. (c) MOLM-14 and MV4-11 cells were treated for different times with IRC-083864 (100 nM) and morphological changes were estimated by microscopy after cells were cytospun and stained at days 8 and 13. Original magnification ×100. (d) MOLM-14 cells were treated for different times with IRC-083864 (100 nM) and c-myc expression as well as C/EBPα phosphorylation on serine 21 were analyzed by western blot at day 1, and C/EBPε expression after 6 days of treatment. (e) MOLM-14 cells were transfected with CDC25A shRNA The expression of the cell surface markers CD11b, CD14 and CD15 were followed by flow cytometry analysis at day 3 and 6 (upper panel), and their morphology was analyzed by microscopy after 6 days (lower panel). Original magnification ×100. (f) MOLM-14 cells were transfected with CDC25A siRNA, and their morphology was analyzed by microscopy after 3 days (upper panel). Original magnification ×100. The efficiency of CDC25A siRNA was assessed by western blot analysis (lower panel).
Lentiviral infections. To generate lentiviral vectors expressing CDC25A protein, sequences were cloned into the pTrip-TAL-Ires-GFP lentiviral vector. We used 293-T packaging cells, co-transfected with lentiviral protein (GAG, POL, and ENV) encoding plasmids, and plasmids containing a control or CDC25A genes, separately. Supernatants containing lentivirus were collected 48 h after transfection, during 3 consecutive days. MOLM-14 cells were plated at 5×10^5 cells in 200 μl in serum-free medium and 5 μl of lentiviral supernatant was added during 3 h. Cells were then grown in 10% FBS RPMI medium.
(§1) Flow cytometry. Apoptotic cells were detected with Annexin V-FITC detection kit from BD Pharmingen (San Diego, Calif., USA) according to the manufacturer instructions. To evaluate AML cell differentiation, cells were stained for 30 min with the following anti-human monoclonal antibodies: CD11b-PE (Beckman Coulter), CD14-FITC (BD Biosciences), CD15-APC (BD Biosciences). For patient samples, additional hCD45-APC-H7 (BD Biosciences), Annexin V-Pacific Blue (BioLegend, San Diego, Calif., USA) and 7-AAD (Sigma) were used; and for bone marrow mice cells, additional CD33-FITC, CD44-PE Cy7, mCD45-PerCP Cy 5.5, CD14-Alexa 700 were used. Data were collected on a LSRII or a LSRFortessa cytometer (BD Biosciences), and analyzed with FlowJo software. A minimum of 10,000 events was collected.
Morphological examination. […] were spun at 500 rpm for 5 minutes onto glass slides and May-Grünwald-Giemsa stained at the Toulouse University Hospital hematology laboratory.

[1] = system: MOLM-14 TKD cells (FLT3-ITD-D835Y); assay: Cell proliferation, MOLM-14 expressing FLT3-ITD/TKD (D835Y); assay type: cell-based, human; settings: 200 nM
Text: Cells were harvested each day and counted after trypan blue staining. The graphs represent three independent experiments.
We consequently developed a cellular model consisting of MOLM-14 cells transfected with a FLT3-ITD mutant with a D835Y amino-acid substitution within the FLT3 kinase domain (FLT3-ITD-D835Y; FLT3-ITD/TKD).

FLT3-ITD cells = assay: Cell death and cell cycle phase at antiproliferative concentrations; assay type: cell-based, human; settings: at concentrations inhibiting cell proliferation
Procedure: as §1

[2] = system: K562 cells (FLT3 negative); assay: Cell proliferation, trypan blue counting, K562; assay type: cell-based, human; settings: 200 nM
Procedure: (§2) (a) MV4-11 and MOLM-14 FLT3-ITD positive cells, KG1, HL-60 and TF-1 FLT3 wild type cells, and K562 FLT3 negative cells were cultured in the presence of the CDC25 inhibitor IRC-083864 (200 nM). Cells were harvested each day and counted after trypan blue coloration. The graph represents three independent experiments.
Cell lines and reagents. Human acute myeloid leukemia cell lines MOLM-14 (Matsuo Y et al, Leukemia 1997) (kindly provided by Martin Carroll, University of Pennsylvania, Philadelphia, Pa., USA) MV4-11, K562 (ACC-102 and ACC-10, DSMZ, Braunschweig, Germany) and FLT3-ITD-expressing murine BaF3 cells were cultured in RPMI 1640 medium (Gibco, Life Technologies, Carlsbad, Calif., USA) supplemented with 10% fetal bovine serum (Sigma, Saint Louis, Calif., USA). TF-1 (ATCC-CRL2003) cells were cultured in RPMI 1640 medium with 10% fetal bovine serum and GM-CSF 2 ng/ml. Concerning MOLM-14 cell line, the presence of a monoallelic 21 bp FLT3-ITD mutation and of an MLL-containing ins(11; 9)(q23;p22p23) were verified (Hematology laboratory of Toulouse University Hospital, Prof E. Delabesse and Dr I. Luquet). KG1 and HL-60 (ACC-14 and ACC-3, DSMZ) cell lines were grown in Iscove's Modified Dulbecco's Medium (IMDM, Gibco) plus 20% FBS. All cells were grown in the presence of 100 units/ml of penicillin and streptomycin (Invitrogen) at 37° C. and 5% CO2.

Cdc25C = Cdc25C (Homo sapiens, UniProt P30307); settings: cited from earlier work
Cdc25C, sequence (P30307 whole entry): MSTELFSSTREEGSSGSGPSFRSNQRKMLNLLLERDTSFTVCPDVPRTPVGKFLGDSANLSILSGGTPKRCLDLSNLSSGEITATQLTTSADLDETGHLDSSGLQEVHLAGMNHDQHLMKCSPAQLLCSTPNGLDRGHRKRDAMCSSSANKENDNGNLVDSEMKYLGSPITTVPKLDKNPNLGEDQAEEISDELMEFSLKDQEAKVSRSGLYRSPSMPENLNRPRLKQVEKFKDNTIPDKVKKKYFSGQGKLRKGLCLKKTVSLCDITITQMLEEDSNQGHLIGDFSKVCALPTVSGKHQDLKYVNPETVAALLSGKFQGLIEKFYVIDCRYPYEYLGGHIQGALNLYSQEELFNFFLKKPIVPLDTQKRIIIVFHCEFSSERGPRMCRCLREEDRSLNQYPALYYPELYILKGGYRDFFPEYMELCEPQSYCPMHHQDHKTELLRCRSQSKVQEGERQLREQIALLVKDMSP

HCT-116 tumor spheroids = settings: by induction of p21 and apoptosis; cited from earlier work
[3] = system: MV4-11 cells (FLT3-ITD positive); assay: Cell proliferation, trypan blue counting, MV4-11; assay type: cell-based, human; settings: 200 nM
Procedure: as §2
(b) MOLM-14 and MV4-11 cells were transfected with CDC25A siRNA for 24 hours, and cells were counted after trypan blue coloration (upper panel). The efficiency of CDC25A siRNA was estimated by western blot analysis (lower panel). ns: non specific.
Cell lines and reagents. Human acute myeloid leukemia cell lines MOLM-14 (Matsuo Y et al, Leukemia 1997) (kindly provided by Martin Carroll, University of Pennsylvania, Philadelphia, Pa., USA) MV4-11, K562 (ACC-102 and ACC-10, DSMZ, Braunschweig, Germany) and FLT3-ITD-expressing murine BaF3 cells were cultured in RPMI 1640 medium (Gibco, Life Technologies, Carlsbad, Calif., USA) supplemented with 10% fetal bovine serum (Sigma, Saint Louis, Calif., USA). TF-1 (ATCC-CRL2003) cells were cultured in RPMI 1640 medium with 10% fetal bovine serum and GM-CSF 2 ng/ml. […]
siRNA. […] Twenty-four or forty-eight hours after transfection, cells were counted (trypan blue staining), and western blotting was performed.

## Cc1nc2c(s1)C(=O)C=C(NCCCN(C)CCCNC1=CC(=O)c3nc(-c4cc(F)ccc4F)oc3C1=O)C2=O [IRC-083864]
MOLM-14 and MV4-11 cells; 100 nM and 200 nM, as early as two days
  expression of CD11b: induced in a dose dependent manner
MOLM-14 and MV4-11 cells; 100 nM, 8 and 13 days
  morphological analysis: monocytic-like nuclear changes
MOLM-14 and MV4-11 cells; after 8 days
  expression of CD15: either decreased or did not change significantly
MOLM-14 and MV4-11 cells; after 8 days, both cell lines
  expression of monocytic marker CD14: increased
[1]
  proliferation and death of ITD/TKD cells: induced cell proliferation arrest and cell death
FLT3-ITD cells
  accumulation in a phase of the cell cycle: nor accumulation in a particular phase of the cell cycle
  cell death: did not induce neither significant cell death
[2]
  proliferation of K562: did not decrease
Cdc25C
  IC50 Cdc25 enzyme type C: nanomolar range
HCT-116 tumor spheroids
  growth of HCT-116 tumor spheroids: inhibits the growth
[3]
  proliferation of MV4-11: robust inhibition

Reference: patent US10179914B2, “CDC25A inhibitor for the treatment of drug resistant cancer or for the prevention of tumor relapse” (INSERM (INSTITUT NATIONAL DE LA SANTÉ ET DE LA RECHERCHE …, priority 2014, dated 2019)
